Consider 24 molecules from patent US20230203043A1, “NOVEL IMIDAZOPYRAZINE DERIVATIVES” (Hoffmann-La Roche Inc., priority 2020, published 2023).

Each structure is given as a SMILES string. Where a name gives a salt, the structure may show the parent alone.

One test has as its system Acinetobacter baumannii ATCC17961. Kind of test: Antimicrobial susceptibility testing: 90% growth inhibitory concentration (IC90) determination in Iso-Sensitest broth, OD600 growth. In kind it is cell-based. The note with it: Acinetobacter baumannii, ATCC17961, 16 h, read-out: A. baumannii ATCC 17961 IC90 (uM), strain ATCC 17961, OD600 growth over 16 h. In short, it runs like this:
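Growth inhibition is calculated during the logarithmic phase from OD600 readings taken every 20 minutes across 16 h at 35±2° C. Bacteria at ~5×10^(5) CFU/ml face twofold dilution series (e.g. 50 to 0.097 μM final).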
As for `CCc1cc(Nc2nccn3c(-c4cn(C5CCC5)nc4C(F)(F)F)cnc23)ccc1C(=O)NCCOCCCN` [Example 609, N-(2-(3-aminopropoxy)ethyl)-4-((3-(1-cyclobutyl-3-(trifluoromethyl)-1H-pyrazol-4-yl)imidazo[1,2-a]pyrazin-8-yl)amino)-2-ethylbenzamide formate], the IC90 (in general, the point of the concentration-response curve where the effect stands at 90%) was 0.086 µM.
As to `CCc1cc(Nc2nccn3c(-c4cn(CC(F)F)nc4C(F)(F)F)cnc23)ccc1C(=O)NCC(=O)N1CCNC(C)C1` (stereo not drawn) [Example 545, 4-[[3-[1-(2,2-difluoroethyl)-3-(trifluoromethyl)pyrazol-4-yl]imidazo[1,2-a]pyrazin-8-yl]amino]-2-ethyl-N-[2-(3-methylpiperazin-1-yl)-2-oxo-ethyl]benzamide formate], the IC90 was 0.306 µM.
Same read-out and setting: then `COCCn1cc(-c2cnc3c(Nc4ccc(C(=O)N5CCN(C(=O)N[C@@H]6CCNC6)CC5)c(Cl)c4)nccn23)c(C(F)(F)F)n1` [Example 296, 4-[2-chloro-4-[[3-[1-(2-methoxyethyl)-3-(trifluoromethyl)pyrazol-4-yl]imidazo[1,2-a]pyrazin-8-yl]amino]benzoyl]-N-[(3R)-pyrrolidin-3-yl]piperazine-1-carboxamide formate], with 0.491 µM; and `CCc1cc(Nc2nccn3c(-c4cn(CC(F)F)nc4C(F)(F)F)cnc23)ccc1C(=O)NCCOCCCN` [Example 618, N-(2-(3-aminopropoxy)ethyl)-4-((3-(1-(2,2-difluoroethyl)-3-(trifluoromethyl)-1H-pyrazol-4-yl)imidazo[1,2-a]pyrazin-8-yl)amino)-2-ethylbenzamide formate], with 0.129 µM; and `CCc1cc(Nc2nccn3c(-c4c[nH]nc4C(F)(F)F)cnc23)ccc1C(=O)NCCNC(=O)[C@@H]1C[C@@](O)(CC)CN1` [Example 435, (2S,4S)-4-ethyl-N-[2-[[2-ethyl-4-[[3-[3-(trifluoromethyl)-1H-pyrazol-4-yl]imidazo[1,2-a]pyrazin-8-yl]amino]benzoyl]amino]ethyl]-4-hydroxypyrrolidine-2-carboxamide formate], with 2.69 µM.
Still for that read-out and setting: the same measure for `CCc1cc(Nc2nccn3c(-c4c[nH]nc4C(F)(F)F)cnc23)ccc1C(=O)NCCNC(=O)[C@@H](N)CNC(=N)N` [Example 213, N-[2-[[(2S)-2-amino-3-carbamimidamidopropanoyl]amino]ethyl]-2-ethyl-4-[[3-[3-(trifluoromethyl)-1H-pyrazol-4-yl]imidazo[1,2-a]pyrazin-8-yl]amino]benzamide formate]: 0.378 µM.
The same measure, in the same setting: then `N#CCn1cc(-c2cnc3c(Nc4ccc(C(=O)N5CCN(C(=O)C6CC(N)C6)CC5)c(Cl)c4)nccn23)c(C(F)(F)F)n1` (stereo not drawn) [Example 189, 2-[4-[8-[4-[4-(3-aminocyclobutanecarbonyl)piperazine-1-carbonyl]-3-chloroanilino]imidazo[1,2-a]pyrazin-3-yl]-3-(trifluoromethyl)pyrazol-1-yl]acetonitrile formate], with 0.204 µM; and `Cc1cc(Nc2nccn3c(-c4cn(CC#N)nc4C(F)(F)F)cnc23)ccc1C(=O)NCC(=O)NC1CC(N)C1` (stereo not drawn) [Example 749, N-[2-[(3-aminocyclobutyl)amino]-2-oxo-ethyl]-4-[[3-[1-(cyanomethyl)-3-(trifluoromethyl)pyrazol-4-yl]imidazo[1,2-a]pyrazin-8-yl]amino]-2-methyl-benzamide formate], with 0.619 µM.

The same test, now with this note: Acinetobacter baumannii, ATCC17961, 16 h, strain ATCC 17961, OD600 growth over 16 h, read-out: A. baumannii ATCC 17961 IC90.
With `O=C(N[C@@H]1CCN(C(=O)[C@@H]2C[C@@H](O)CN2)C1)c1ccc(Nc2nccn3c(-c4c[nH]nc4C(F)(F)F)cnc23)cc1Cl` [Example 308, 2-chloro-N-[(3R)-1-[(2S,4R)-4-hydroxypyrrolidine-2-carbonyl]pyrrolidine-3-yl]-4-[[3-[3-(trifluoromethyl)-1H-pyrazol-4-yl]imidazo[1,2-a]pyrazin-8-yl]amino]benzamide], the IC90 worked out at 0.525 µM.
As for `N#CCn1cc(-c2cnc3c(Nc4ccc(C(=O)N5CCNCC5)c(Cl)c4)nccn23)c(C(F)(F)F)n1` [Example 226, 2-[4-[8-[3-chloro-4-(piperazine-1-carbonyl)anilino]imidazo[1,2-a]pyrazin-3-yl]-3-(trifluoromethyl)pyrazol-1-yl]acetonitrile], the 90% effect concentration (IC90) was found to be 0.088 µM.
In the case of `NCCOCCNC(=O)c1ccc(Nc2nccn3c(-c4cn(CC5CC5)nc4C(F)(F)F)cnc23)cc1F` [Example 811, N-(2-(2-aminoethoxy)ethyl)-4-((3-(1-(cyclopropyl-methyl)-3-(trifluoromethyl)-1H-pyrazol-4-yl)imidazo[1,2-a]pyrazin-8-yl)amino)-2-fluorobenzamide hydrochloride], the IC90 was 0.23 µM.
Turning to `CCc1cc(Nc2nccn3c(-c4cn(C)nc4C(F)(F)F)cnc23)ccc1C(=O)NCCCNC(=O)[C@@H]1C[C@@H](O)CN1` [Example 437, (2S,4R)-N-[3-[[2-ethyl-4-[[3-[1-methyl-3-(trifluoromethyl)pyrazol-4-yl]imidazo[1,2-a]pyrazin-8-yl]amino]benzoyl]amino]propyl]-4-hydroxypyrrolidine-2-carboxamide], the IC90 was 1.02 µM.
`Cc1cc(Nc2nccn3c(-c4cn(CCF)nc4C(F)(F)F)cnc23)cc(F)c1C(=O)N1CCNCC1` [Example 73, [2-fluoro-4-[[3-[1-(2-fluoroethyl)-3-(trifluoromethyl)pyrazol-4-yl]imidazo[1,2-a]pyrazin-8-yl]amino]-6-methylphenyl]-piperazin-1-ylmethanone]: the IC90 is 0.687 µM.
On the same count and under the same terms, the same measure for `CCc1cc(Nc2nccn3c(-c4cn(CC(F)F)nc4C(F)(F)F)cnc23)ccc1C(=O)NCCOCC(C)(C)N` [Example 50, N-[2-(2-amino-2-methylpropoxy)ethyl]-4-[[3-[1-(2,2-difluoroethyl)-3-(trifluoromethyl)pyrazol-4-yl]imidazo[1,2-a]pyrazin-8-yl]amino]-2-ethylbenzamide]: 0.121 µM; for `C#CCNCCCCNC(=O)c1c(C)cc(Nc2nccn3c(-c4c[nH]nc4C(F)(F)F)cnc23)cc1F` [Example 783, 2-fluoro-6-methyl-N-(4-(prop-2-yn-1-ylamino)butyl)-4-((3-(3-(trifluoromethyl)-1H-pyrazol-4-yl)imidazo[1,2-a]pyrazin-8-yl)amino)benzamide]: 1.21 µM; for `C[C@@H]1CN(C(=O)c2ccc(Nc3nccn4c(-c5c[nH]nc5C(F)(F)F)cnc34)cc2Cl)CCN1` [Example 323, [2-chloro-4-[[3-[3-(trifluoromethyl)-1H-pyrazol-4-yl]imidazo[1,2-a]pyrazin-8-yl]amino]phenyl]-[(3R)-3-methylpiperazin-1-yl]methanone]: 1.05 µM.
On the same count and under the same terms, the same measure for `O=C(NC1CCNCC1)c1ccc(Nc2nccn3c(-c4c[nH]nc4C(F)(F)F)cnc23)cc1Cl` [Example 413, 2-chloro-N-piperidin-4-yl-4-[[3-[3-(trifluoromethyl)-1H-pyrazol-4-yl]imidazo[1,2-a]pyrazin-8-yl]amino]benzamide]: 2.2 µM; for `N[C@H]1C[C@@H](NC(=O)N2CCN(C(=O)c3ccc(Nc4nccn5c(-c6cn(CC(F)F)nc6C(F)(F)F)cnc45)cc3Cl)CC2)C1` [Example 585, N-((1s,3s)-3-aminocyclobutyl)-4-(2-chloro-4-((3-(1-(2,2-difluoroethyl)-3-(trifluoromethyl)-1H-pyrazol-4-yl)imidazo[1,2-a]pyrazin-8-yl)amino)benzoyl) piperazine-1-carboxamide formate]: 0.325 µM.
The same measure, in the same setting: the same measure for `O=C(NC1CCCNC1)c1ccc(Nc2nccn3c(-c4c[nH]nc4C(F)(F)F)cnc23)cc1Cl` (stereo not drawn) [Example 414, 2-chloro-N-piperidin-3-yl-4-[[3-[3-(trifluoromethyl)-1H-pyrazol-4-yl]imidazo[1,2-a]pyrazin-8-yl]amino]benzamide]: 4.04 µM; for `O=C(c1ccc(N(c2nccn3c(-c4c[nH]nc4C(F)(F)F)cnc23)C(F)F)cc1Cl)N1CCNCC1` [Example 9, [2-chloro-4-[difluoromethyl-[3-[3-(trifluoromethyl)-1H-pyrazol-4-yl]imidazo[1,2-a]pyrazin-8-yl]amino]phenyl]-piperazin-1-ylmethanone]: 1.05 µM.
In the case of `Cc1cc(Nc2nccn3c(-c4cn(CC(F)F)nc4C(F)(F)F)cnc23)cc(F)c1C(=O)N[C@H](C)CNC(=O)[C@@H]1C[C@@H](O)CN1` [Example 744, (2S,4R)-N-((R)-2-(4-((3-(1-(2,2-difluoroethyl)-3-(trifluoromethyl)-1H-pyrazol-4-yl)imidazo[1,2-a]pyrazin-8-yl)amino)-2-fluoro-6-methylbenzamido)propyl)-4-hydroxypyrrolidine-2-carboxamide], the 90% effect concentration (IC90) was 0.557 µM.
Same read-out and setting: then `N#CCn1cc(-c2cnc3c(Nc4ccc(C(=O)N5CCN(C(=O)[C@H]6CCNC6)CC5)c(Cl)c4)nccn23)c(C(F)(F)F)n1` [Example 190, 2-[4-[8-[3-chloro-4-[4-[(3S)-pyrrolidine-3-carbonyl]piperazine-1-carbonyl]anilino]imidazo[1,2-a]pyrazin-3-yl]-3-(trifluoromethyl)pyrazol-1-yl]acetonitrile], with 0.245 µM.

The same test, now with this note: strain ATCC 17961, OD600 growth over 16 h, read-out: A. baumannii ATCC 17961 IC90.
In the case of `C#CCn1cc(-c2cnc3c(Nc4ccc(C(=O)NCCCN)c(CC)c4)nccn23)c(C(F)(F)F)n1` [Example 47, N-(3-aminopropyl)-2-ethyl-4-[[3-[1-prop-2-ynyl-3-(trifluoromethyl)pyrazol-4-yl]imidazo[1,2-a]pyrazin-8-yl]amino] benzamide], the concentration for an effect of 90% (IC90) turned out to be 0.105 µM.
Still for that read-out and setting: the same measure for `NC1CCC(NC(=O)N2CCN(C(=O)c3ccc(Nc4nccn5c(-c6c[nH]nc6C(F)(F)F)cnc45)cc3Cl)CC2)CC1` (stereo not drawn) [Example 291, N-(4-aminocyclohexyl)-4-[2-chloro-4-[[3-[3-(trifluoromethyl)-1H-pyrazol-4-yl]imidazo[1,2-a]pyrazin-8-yl]amino]benzoyl] piperazine-1-carboxamide formate]: 0.332 µM.
